Test results as given in ChEMBL document CHEMBL3272133, “1-[4-(4-Chlorophenyl)-2-(2,6-dichlorophenylthio)-n-butyl]-1H-imidazole nitrate, a new potent antifungal agent” (J Med Chem, 1978).
Calls of active or inactive are those of the source. The rule behind the calls is not given here.

Tests used:
[1] = system: Trichophyton mentagrophytes; experiment: Antifungal activity against Trichophyton mentagrophytes infected in guinea pig assessed as noninfected animals at 0.5% formulation in steryl alcohol, cetyl alcohol, Span 60, Tween 60, propylene glycol, mineral oil, and water administered qd for 5 days measured on day 4; format: functional
[2] = system: Candida albicans; experiment: Antifungal activity against mixed infection of Candida albicans infected in mouse assessed as noninfected animals at 2% commercial cream formulation administered vaginally bid for 4 days measured on day 7 relative to placebo; format: functional
[3] = system: Trichophyton mentagrophytes; experiment: Antifungal activity against Trichophyton mentagrophytes infected in guinea pig assessed as noninfected animals at 0.5% formulation in steryl alcohol, cetyl alcohol, Span 60, Tween 60, propylene glycol, mineral oil, and water administered qd for 5 days measured on day 7; format: functional
[4] = system: Candida albicans; experiment: Antifungal activity against Candida albicans infected in mouse assessed as noninfected animals at 1% formulation in neat PEG 400 solution administered vaginally bid for 4 days measured 6 hrs post last dose relative to placebo; format: functional
[5] = system: Candida albicans; experiment: Antifungal activity against Candida albicans ATCC 10231 assessed as growth inhibition by broth dilution method; format: functional
[6] = system: Trichophyton mentagrophytes; experiment: Antifungal activity against Trichophyton mentagrophytes assessed as growth inhibition by agar dilution method; format: functional
[7] = system: Trichophyton tonsurans; experiment: Antifungal activity against Trichophyton tonsurans assessed as growth inhibition by agar dilution method; format: functional
[8] = system: Candida albicans; experiment: Antifungal activity against Candida albicans infected in mouse assessed as noninfected animals at 4% formulation in neat PEG 400 solution administered vaginally bid for 4 days measured on day 7 relative to placebo; format: functional
[9] = system: Candida albicans; experiment: Antifungal activity against mixed infection of Candida albicans infected in mouse assessed as noninfected animals at 2% formulation administered vaginally bid for 4 days measured 6 hrs post last dose relative to placebo; format: functional
[10] = system: Trichophyton rubrum; experiment: Antifungal activity against Trichophyton rubrum assessed as growth inhibition by agar dilution method; format: functional
[11] = system: Candida albicans; experiment: Antifungal activity against Candida albicans infected in mouse assessed as noninfected animals at 2% formulation in modified PEG 400 solution administered vaginally bid for 4 days measured on day 7 relative to placebo; format: functional, organism-based
[12] = system: Candida albicans; experiment: Antifungal activity against Candida albicans infected in mouse assessed as noninfected animals at 4% formulation in neat PEG 400 solution administered vaginally bid for 4 days measured 6 hrs post last dose relative to placebo; format: functional
[13] = system: Candida albicans; experiment: Antifungal activity against mixed infection of Candida albicans infected in mouse assessed as noninfected animals at 0.2% formulation administered vaginally bid for 4 days measured on day 7 relative to placebo; format: functional
[14] = system: Trichophyton mentagrophytes; experiment: Antifungal activity against Trichophyton mentagrophytes infected in guinea pig assessed as noninfected animals at 0.5% formulation in steryl alcohol, cetyl alcohol, Span 60, Tween 60, propylene glycol, mineral oil, and water administered qd for 5 days measured on day 14; format: functional
[15] = system: Candida albicans; experiment: Antifungal activity against Candida albicans ATCC 14053 assessed as growth inhibition by broth dilution method; format: functional
[16] = system: Microsporum canis; experiment: Antifungal activity against Microsporum canis assessed as growth inhibition by agar dilution method; format: functional
[17] = system: Staphylococcus aureus; experiment: Antibacterial activity against Staphylococcus aureus No. 6538 P assessed as growth inhibition by broth microdilution method; format: functional
[18] = system: Enterococcus faecalis; experiment: Antibacterial activity against Streptococcus faecalis No. 8043-2 assessed as growth inhibition by broth microdilution method; format: functional
[19] = system: Candida albicans; experiment: Antifungal activity against mixed infection of Candida albicans infected in mouse assessed as noninfected animals at 2% formulation administered vaginally bid for 4 days measured on day 7 relative to placebo; format: functional
[20] = system: Candida albicans; experiment: Antifungal activity against mixed infection of Candida albicans infected in mouse assessed as noninfected animals at 0.5% formulation administered vaginally bid for 4 days measured 6 hrs post last dose relative to placebo; format: functional
[21] = system: Candida albicans; experiment: Antifungal activity against Candida albicans infected in mouse assessed as noninfected animals at 2% formulation in neat PEG 400 solution administered vaginally bid for 4 days measured 6 hrs post last dose relative to placebo; format: functional
[22] = system: Candida albicans; experiment: Antifungal activity against mixed infection of Candida albicans infected in mouse assessed as noninfected animals at 1% formulation administered vaginally bid for 4 days measured on day 7 relative to placebo; format: functional
[23] = system: Candida albicans; experiment: Antifungal activity against mixed infection of Candida albicans infected in mouse assessed as noninfected animals at 0.2% formulation administered vaginally bid for 4 days measured 6 hrs post last dose relative to placebo; format: functional
[24] = system: Candida albicans; experiment: Antifungal activity against Candida albicans infected in mouse assessed as noninfected animals at 1% formulation in neat PEG 400 solution administered vaginally bid for 4 days measured on day 7 relative to placebo; format: functional
[25] = system: Streptococcus pyogenes; experiment: Antibacterial activity against Streptococcus pyogenes No. 8668 assessed as growth inhibition by broth microdilution method; format: functional
[26] = system: Nannizzia gypsea; experiment: Antifungal activity against Microsporum gypseum assessed as growth inhibition by agar dilution method; format: functional
[27] = system: Candida albicans; experiment: Antifungal activity against Candida albicans infected in mouse assessed as noninfected animals at 2% formulation in neat PEG 400 solution administered vaginally bid for 4 days measured on day 7 relative to placebo; format: functional
[28] = system: Candida albicans; experiment: Antifungal activity against mixed infection of Candida albicans infected in mouse assessed as noninfected animals at 1% formulation administered vaginally bid for 4 days measured 6 hrs post last dose relative to placebo; format: functional
[29] = Antifungal activity against Trichophyton concentricum assessed as growth inhibition by agar dilution method; format: functional
[30] = system: Cryptococcus neoformans; experiment: Antifungal activity against Cryptococcus neoformans assessed as growth inhibition by broth dilution method; format: functional
[31] = system: Epidermophyton floccosum; experiment: Antifungal activity against Epidermophyton floccosum assessed as growth inhibition by agar dilution method; format: functional
[32] = system: Candida albicans; experiment: Antifungal activity against Candida albicans infected in mouse assessed as noninfected animals at 0.5% formulation in neat PEG 400 solution administered vaginally bid for 4 days measured 6 hrs post last dose relative to placebo; format: functional
[33] = system: Staphylococcus aureus; experiment: Antibacterial activity against Staphylococcus aureus No. 14154 assessed as growth inhibition by broth microdilution method; format: functional
[34] = system: Candida albicans; experiment: Antifungal activity against Candida albicans infected in mouse assessed as noninfected animals at 0.5% formulation in neat PEG 400 solution administered vaginally bid for 4 days measured on day 7 relative to placebo; format: functional
[35] = system: Candida albicans; experiment: Antifungal activity against mixed infection of Candida albicans infected in mouse assessed as noninfected animals at 0.5% formulation administered vaginally bid for 4 days measured on day 7 relative to placebo; format: functional
[36] = system: Candida albicans; experiment: Antifungal activity against mixed infection of Candida albicans infected in mouse assessed as noninfected animals at 2% commercial cream formulation administered vaginally bid for 4 days measured 6 hrs post last dose relative to placebo; format: functional
[37] = system: Candida albicans; experiment: Antifungal activity against Candida albicans infected in mouse assessed as noninfected animals at 100000 U/g administered vaginally bid for 4 days measured 6 hrs post last dose relative to placebo; format: functional, organism-based
[38] = system: Candida albicans; experiment: Antifungal activity against Candida albicans infected in mouse assessed as noninfected animals at 100000 U/g administered vaginally bid for 4 days measured on day 7 relative to placebo; format: functional, organism-based

Compound `Clc1ccc(COC(Cn2ccnc2)c2ccc(Cl)cc2Cl)c(Cl)c1` (stereo not drawn) [MICONAZOLE] has an Activity [1] of 70%, an Activity [2] of 25% and an Activity [3] of 80%. The Activity [4] was 60%, the GI [5] was 30 µg/mL and the GI [6] was 0.5 µg/mL. It also gave a GI [7] of 0.5 µg/mL, an Activity [8] of 70% and an Activity [9] of 10%. For the same compound, the GI [10] was 0.5 µg/mL, the Activity [11] was “inactive” and the Activity [12] was 75%. For the same compound, the Activity [13] was 20%, the Activity [14] was 10% and the GI [15] was 30 µg/mL. For the same compound, the GI [16] was 0.5 µg/mL, the GI [17] was 6.25 µg/mL and the GI [18] was 3.12 µg/mL. It also gave an Activity [19] of 15%, an Activity [20] of 20% and an Activity [21] of 50%. It also gave an Activity [22] of 25%, an Activity [23] of 15% and an Activity [24] of 25%. The GI [25] was “<=0.0008 ug ml-1”, the GI [26] was 0.05 µg/mL and the Activity [27] was 37%. For the same compound, the Activity [28] was 20%, the GI [29] was 0.5 µg/mL and the GI [30] was “<=0.3 ug ml-1”. It also gave a GI [31] of 5 µg/mL, an Activity [32] of 30% and a GI [33] of 12.5 µg/mL. It also gave an Activity [34] of 25%, an Activity [35] of 11% and an Activity [36] of 33%.

With NYSTATIN the Activity [37] was 10% and the Activity [38] was 0%.
